Earlier results as cited in PMC7199283 (Antiviral research, 2020).

System: HBV
Settings: ref Hu et al., 2013

Q: Which “accumulation of RNA:DNA heteroduplexes within HBV capsids” value does the source give for `CC(C)c1ccc(O)c(=O)c(O)c1` [β-thujaplicinol] here?
A: Its value is “dose-dependent accumulation of RNA:DNA heteroduplexes”.
